Literature values in patent publication US20120258202A1, “Compositions and Methods for an Appetite Suppressant and a Nutrient Absorption Blocker with Treatment To Raise Metabolic Rate” (priority 2011, published 2012).

Columns and labels:
[1] = laboratory animals
[2] = people taking sibutramine; control 10.0%
[3] = after ORLISTAT was stopped

For `CN[C@H]1CC[C@@H](c2ccc(Cl)c(Cl)c2)c2ccccc21` [sertraline, Sertraline], the body weight [1] is listed as “resulted in weight loss”.

In the case of `CNCCC(Oc1ccc(C(F)(F)F)cc1)c1ccccc1` (stereo not drawn) [fluoxetine, Fluoxetine], the “interruption of the treatment due to anxiety, insomnia, and nervousness (each)” value (in vivo) is listed as 1-2%, the anorexia (prescribing information, placebo 3%) is listed as 10% and the somnolence (prescribing information, placebo 5%) is listed as 12%. The anxiety (prescribing information, placebo 6%) was 12%, the nausea (prescribing information, placebo 9%) was 22% and the insomnia (prescribing information, placebo 10%) was 19%.

In the case of `CC(C)CC(N(C)C)C1(c2ccc(Cl)cc2)CCC1` (stereo not drawn) [sibutramine, Sibutramine], the cardiovascular events [2] is given as 11.4%.

In the case of `CCCCCCCCCCC[C@@H](C[C@@H]1OC(=O)[C@H]1CCCCCC)OC(=O)[C@H](CC(C)C)NC=O` [orlistat, tetrahydrolipstatin], the “weight regained after drug was stopped, of the weight lost” value [3] is given as “up to 35%”.
